Measurements as given in patent US20030022826A1, “Use of synthetic peptides to induce tolerance to pathogenic T and B cell epitopes of autoantigens or infectious agents” (priority 1987, published 2003).

What was measured:
[1] = system: circulating chimpanzee T, B or NK cell populations; assay: Absolute numbers of lymphocytes and lymphocyte subsets by flow cytometry during immunization; format: in vivo; conditions: for B cells, % Change / T cells, % Change / Total Lymphocytes, % Change / NK cells, % Change: before vs during immunization; for average drop of T cell levels: during the immunization period; for B cells, During / NK cells, During / T cells, During / Total Lymphocytes, During: mean, months 2-14 of immunization, n = 11
Description: Flow Cytometry: Chimpanzee PB mononuclear cells were studied by standard flow cytometry methods using a flow cytometer (751; Coulter Electronics, Inc., Hialeah, Fla.). PB lymphocytes were identified by the following markers; total T cells, CD3; T cell subunits, CD4 and CD8; B cells, CD19; and NK cells, CD56 and CD16.

[2] = DSP cross-linking and SDS-PAGE analysis of peptide complexes; format: physicochemical; conditions: DSP cross-linking in the presence of Triton-X 100 1%
Experimental: Lanes D,E,F, and G show the effect on peptide MW when the peptide is cross-linked with 6.25 μg (D), 12.5 μg (E), 25 μg (F) and 50 μg (G) of DSP prior to SDS-PAGE. […] At present, the nature of the two bands in this peptide under reducing conditions is unknown; these two bands can be purified by cutting the bands out of preparative gels and can be analyzed by mass spectroscopy and sequenced. Lanes A and B show the results of crosslinking F-T1-SP10IIIB(A) peptide in the presence to Triton-X 100 1% and run under reducing (A) and non-reducing conditions (B).

[3] = system: PHA; assay: PBMC proliferative responses to PHA in immunized chimpanzees; format: in vivo, chimpanzee; conditions: animals 1045 and 1070; throughout the immunization period
Description: Acpm=experimental cpm—control cpm.

CC[C@H](C)[C@H](NC(=O)[C@@H](NC(=O)[C@@H](NC(=O)[C@H](Cc1ccccc1)NC(=O)[C@H](C)NC(=O)[C@H](CCCNC(=N)N)NC(=O)CNC(=O)[C@@H]1CCCN1C(=O)CNC(=O)[C@H](CCCNC(=N)N)NC(=O)[C@H](CCC(N)=O)NC(=O)[C@@H](NC(=O)[C@H](CCCNC(=N)N)NC(=O)[C@@H](NC(=O)[C@H](CO)NC(=O)[C@H](CCCCN)NC(=O)[C@H](CCCNC(=N)N)NC(=O)[C@@H](NC(=O)[C@H](CC(N)=O)NC(=O)[C@H](CC(N)=O)NC(=O)[C@H](CC(N)=O)NC(=O)[C@@H]1CCCN1C(=O)[C@H](CCCNC(=N)N)NC(=O)[C@@H](NC(=O)[C@H](CS)NC(=O)[C@H](C)NC(=O)[C@H](Cc1ccc(O)cc1)NC(=O)[C@H](CCSC)NC(=O)[C@H](C)NC(=O)[C@H](CCCCN)NC(=O)CNC(=O)[C@@H](NC(=O)[C@H](CCC(=O)O)NC(=O)[C@H](CCC(N)=O)NC(=O)[C@H](Cc1c[nH]c2ccccc12)NC(=O)[C@H](CCSC)NC(=O)[C@H](CC(N)=O)NC(=O)[C@@H](NC(=O)[C@@H](NC(=O)[C@H](CCC(N)=O)NC(=O)[C@H](CCCCN)NC(=O)[C@H](CC(C)C)NC(=O)[C@H](Cc1ccccc1)NC(=O)CNC(=O)[C@H](CC(C)C)NC(=O)[C@H](Cc1ccccc1)NC(=O)[C@H](CC(C)C)NC(=O)[C@H](C)NC(=O)CNC(=O)[C@@H](NC(=O)CNC(=O)[C@@H](NC(=O)[C@H](C)N)C(C)C)[C@@H](C)CC)[C@@H](C)CC)[C@@H](C)CC)C(C)C)[C@@H](C)O)[C@@H](C)O)[C@@H](C)CC)[C@@H](C)CC)C(C)C)[C@@H](C)O)C(=O)O [F-T1-SP10IIIB(A)]
lymphocyte count ([1]; animal 1045, week 12): 650 /mm^3
B cells, % Change ([1]; chimpanzee 1045, § p > .005): −40%§
T cells, % Change ([1]; chimpanzee 1045, † p > .001): −59%†
Total Lymphocytes, % Change ([1]; chimpanzee 1045, † p > .001): −55%†
NK cells, % Change ([1]; chimpanzee 1045, ‡ p > .02): −45%‡
average drop of T cell levels ([1]; chimpanzee 1045, p>0.001 as printed): 59%
B cells, During ([1]; chimpanzee 1045): 175 Cells/mm^3
NK cells, During ([1]; chimpanzee 1045): 61 Cells/mm^3
T cells, During ([1]; chimpanzee 1045): 1012 Cells/mm^3
Total Lymphocytes, During ([1]; chimpanzee 1045): 1426 Cells/mm^3
B cells, % Change ([1]; chimpanzee 1070): −23%
NK cells, % Change ([1]; chimpanzee 1070): −36%
Total Lymphocytes, % Change ([1]; chimpanzee 1070): −30%
T cells, % Change ([1]; chimpanzee 1070, ‡ p > .02): −44%‡
average drop of T cell levels ([1]; chimpanzee 1070, p>0.02 as printed): 44%
B cells, During ([1]; chimpanzee 1070): 232 Cells/mm^3
NK cells, During ([1]; chimpanzee 1070): 306 Cells/mm^3
T cells, During ([1]; chimpanzee 1070): 1887 Cells/mm^3
Total Lymphocytes, During ([1]; chimpanzee 1070): 2768 Cells/mm^3
effect on circulating lymphocyte levels ([1]; chimpanzees, F-derivatized peptide in 1045 and 1070, Th-B in 884 and 1028): induced decreases in absolute levels of circulating T cells
stability of high MW complexes to detergent [2]: resistant to disruption by this detergent
PBMC PHA responses [3]: normal
